# Experimental data: a melting point compilation (Tetko et al.; mined from patent text by program, amines drawn as free bases though some values may be those of a salt)
row,SMILES,melting point [°C]
1,COc1ccc(C(=O)NCC(=O)N2c3ccccc3N(Cc3ccccc3)C(=O)[C@H]3CCC[C@H]32)cc1 (relative stereo),160 to 161
2,CC(=O)Nc1ccc(Sc2cccn3nc(Cl)nc23)cc1,148 to 150
3,Cn1ncc2c1CSc1cn[nH]c1-2,224 to 226
4,Cc1cc(CC(C)(C)C=O)cc(C)c1O,72 to 73
5,c1ccc(Oc2ccc3[nH]c4c(c3c2)CNCC4)cc1,179
6,CC(=O)OC1CC(C)(C)N(OC(=O)C23CC4CC(CC(C4)C2)C3)C(C)(C)C1,132 to 134
7,CC(C)N1C(=O)C2Cc3c(nc(C(=O)c4ccccc4)n3Cc3ccccc3)CN2C1=O (stereo not drawn),215 to 217
8,C1CNCCNCCNCNCCNC1,49 to 51
9,CN(C)c1ccc(NS(=O)(=O)c2cccc(-c3ccc(F)cc3)c2)cc1,158 to 160
10,COC1=CC(=O)c2ccccc2C1=O,182 to 183
11,O=C(O)CCCCCCCn1nc(-c2ccccc2)c(-c2ccccc2)nc1=O,111 to 113
12,O=C1c2c(Cl)cccc2-n2cnc(-c3nnc(CCl)o3)c2[C@@H]2CCN12,185 to 189
13,COC(=O)CCC(=O)c1ccc(-c2ccc(Br)cc2)cc1,115 to 116
14,COc1cc(OC)nc(N(C(=S)Oc2ccccc2)C(=S)Oc2ccccc2)n1,127 to 128
15,OCc1ccc(OCc2ccccc2)cc1O,88 to 90
16,O=C1CCCc2nc3ccccc3c(NCc3ccc(Cl)cc3)c21,162 to 164
17,CCCn1c2cc(C)ccc2c2oc(C(=O)Cl)cc21,130 to 132
18,Cc1nc2c(-c3cccc(C(F)(F)F)c3)cncn2n1,114 to 116
19,Cc1ccc2c(c1)C(=O)c1ccc(C(=O)O)cc1S2(=O)=O,357
20,C#CCNC(NCCSCc1[nH]cnc1C)=C(C#N)C(N)=O,88 to 94
21,COc1ccc([N+](=O)[O-])cc1CC#N,100
22,COc1c(OC)c(OC)c2c(=O)cc(-c3ccc(OCc4ccccc4)c(OCc4ccccc4)c3)oc2c1OC,157 to 158
23,COc1cccc(C=CCC(=O)O)c1OC,84 to 86
24,Cc1cccc(-c2[nH]c(C(C)C)nc2-c2cccc(-c3ccc4c(c3)C=CS4(=O)=O)c2)n1,137 to 138
25,CN1C(=O)C(c2cccc(C#Cc3ccccc3)c2)(c2cc(C=O)n(CCCF)c2)N=C1N (stereo not drawn),85 to 90
26,CO/C(=C\C=C\c1cc2ccccc2o1)C(=O)O,206

row,SMILES,melting point [°C]
1,O=C(O)Cc1ccc(Cl)cc1[N+](=O)[O-],156 to 159
2,CC(Cl)(Cl)C(NC(=O)c1cc(F)cc(F)c1)NC(=NC#N)Nc1ccc(C(F)(F)F)nc1 (stereo not drawn),202 to 203
3,CN(C)C(=N[N+](=O)[O-])NCc1ccc(Cl)nc1,160 to 162
4,O=P(O)(O)Cc1ccc(CP(=O)(O)O)cc1,> 300
5,CCCCc1nc2c(N)nc(C)c(C)c2n1NC1CCCCC1,160 to 162
6,CCc1oncc1C(=O)Nc1ccc([N+](=O)[O-])cc1,139 to 141
7,Cc1cc(C)c(NC(=O)OC(C)(C)C)c(C)c1,73 to 73.5
8,Fc1cc2c(cc1F)CC(n1c(-c3nnn[nH]3)c[nH]c1=S)C2,142 to 147
9,CC(=O)Nc1cnn2c1-c1ccccc1N(NC(C)=O)C2(C)C,229 to 230
10,O=C1CCc2c(F)cc(F)cc2C1,46
11,Nc1cc(F)ccc1[N+](=O)[O-],99
12,C=CCSc1nc(N)nc2c1ncn2C1C=CC(CO)C1 (stereo not drawn),108 to 110
13,CCCCC1c2ccccc2-c2ccccc2N1S(=O)(=O)c1ccc(O)cc1 (stereo not drawn),149 to 151
14,CCOC(=O)Cn1nc(-c2ccc(OC)cc2)cc(C(=O)OCC)c1=O,77.1 to 77.8
15,CCOc1cc2cc(C(=O)OC)c(C(=O)OC)c(-c3ccncc3)c2cc1OCC,149 to 150
16,O=C1C(=O)N2c3c(cc(Cl)cc31)CCC2c1ccccc1 (stereo not drawn),173 to 174
17,CN1C(=O)[C@H](NC(=O)/C=C/c2ccc3c(c2)OCO3)N=C(c2ccccc2)c2ccccc21,143 to 145
18,Cc1ccc(Cl)cc1N1C(=O)C(=O)N(C)C1=S,171 to 173
19,Cc1cc(NCC(C)C)c2[nH]ncc2n1,162 to 164
20,Cn1nc2ccccc2c1C(=O)NCCN1CCC(c2ccc(F)cc2)CC1,105 to 107
21,COc1ccccc1NC(=O)Nc1ccc(N2CCN(C(=O)Nc3ccc(OCCO)cc3C(F)(F)F)CC2)cc1,118 to 120
22,O=C(c1cc(-c2ccccc2)c(=O)n2c1-c1ccccc1C2)N1CC(O)C1,238 to 242
23,CCOC(=O)[C@@H]1C[C@H](OS(=O)(=O)c2ccc(C)cc2)CN1C(=O)OCc1ccccc1,91 to 92
24,COC(=O)C(=O)c1ccc(OCCOc2ccc3ccccc3c2)cc1C,118 to 120
25,Cc1ccc(C2CN(c3cc4nc5c(cc4cc3F)c(=O)c(C(=O)O)cn5C)CCN2)cc1C (racemic),276
26,O=C1OCCC1=Cc1ccccc1OCC(O)CN1CCC(c2ccc(Cl)c(F)c2)CC1 (stereo not drawn),114 to 115

row,SMILES,melting point [°C]
1,CCCN(CCCNc1ncc(Cc2ccc(C)nc2)c(=O)[nH]1)c1ccccn1,83 to 90
2,COc1cc2ncnc(N3CCN(C(=O)NCCc4ccc(Cl)cc4)CC3)c2cc1OC,177 to 178
3,COCc1nc2c(N)nc3cc(CCC(=O)N4CCOCC4)ccc3c2n1CC(C)(C)O,215 to 217
4,C#CCOc1ccc2c(c1)c(-c1ccc(C(C)C)cc1)nc(=O)n2Cc1cccc(N2CCCC2=O)c1,68 to 69
5,O=C(Nc1ccc(C(F)(F)F)cc1)Nc1nc(Cl)cc(Cl)n1,99 to 101
6,COCC(Oc1ccc(-n2nnc3cc(C(F)(F)F)ccc32)cc1)C(=O)O (stereo not drawn),139 to 142
7,CCOC(=O)COc1c(Br)cc(-c2cccc3sc4ccccc4c23)cc1Br,140 to 142
8,COCC1=C(C(=O)OC)C(c2ccccc2Cl)c2c[nH]nc2N1 (stereo not drawn),160
9,Nc1nc2ccccc2n1CCCN1CCCCC1,179 to 181
10,COC(=O)C(OC(C(=O)OC)C(=O)OC)C(=O)OC,60 to 61
11,N#Cc1ccc(-c2ccc(-c3cn4cc(C#N)ccc4n3)cc2)cc1,276 to 278
12,NS(=O)(=O)c1ccc(NN=C2C(=O)Nc3cccc(Oc4ccccc4)c32)cc1,> 250
13,CCCCOn1nnc2ccc(C(O)c3ccccc3)cc21 (stereo not drawn),89.2
14,O=C(O)c1cccc(OCCCCCCc2cccc(O)c2O)c1,123 to 125
15,C#CCNc1ccc([N+](=O)[O-])cc1[N+](=O)[O-],151 to 152
16,CCS(=O)c1ccc(-c2nc(-c3ccc(F)cc3)c(-c3ccncc3)[nH]2)cc1 (stereo not drawn),240
17,CN1CCCN(c2ccc3nc4c(n3n2)CCCC4)CC1,106 to 107
18,CC(=NS(=O)(=O)C=Cc1c(Cl)cccc1Cl)NC1CC1,121 to 124
19,CCc1c(C(=O)C(N)=O)c2cc(OCCCC(=O)O)ccc2n1Cc1ccccc1,173 to 175
20,OCCNCC(O)c1cccc(OCc2ccccc2)c1 (stereo not drawn),114
21,CC1CCC(C(C)C)C(C(=O)NC(C)(C)C)C1 (stereo not drawn),145 to 146
22,Cc1nc2n(c1C)CCCC2=O,178
23,CC(=O)OC1(C)C=CC2=NC(c3cc(C)c(O)c(C)c3)=CC2=C1 (stereo not drawn),161 to 162
24,CC1Cc2c(cc(C(C)(C)C)c(O)c2C(C)(C)C)O1 (stereo not drawn),86.8
25,CCOC(=O)C1Cc2cc(-c3ccccc3)ccc2O1 (stereo not drawn),112
26,COc1c2c(cc3ccc(=O)oc13)CC(C)O2 (stereo not drawn),115 to 116

row,SMILES,melting point [°C]
1,COc1ccc2c(c1)S(=O)(=O)C(C#N)=C(C)N2,307 to 308
2,COc1ccc(CC2COCc3nc4c(N)nc5ccccc5c4n32)cc1 (stereo not drawn),115 to 130
3,CCOC(=O)C1=C(C)Nc2ccccc2N(C)C1c1cccc([N+](=O)[O-])c1 (stereo not drawn),113 to 116
4,CCCCCCCCc1ccc(CCC(CO)(CO)[N+](=O)[O-])cc1,80 to 82
5,CCCCOc1nc(N)c2[nH]c(=O)n(CCCCN(CCN3CCCC3)S(=O)(=O)c3cccc(CC(=O)O)c3)c2n1,192 to 193
6,CCC12OC[C@@H](O1)[C@@H](O)C[C@H]2OC,43 to 44
7,COc1cccc(C2=CCN(c3ccc(Cl)nn3)CC2)c1,126
8,COc1ncc(-c2cc(NC(=O)c3csc(CN4C[C@@H](C)O[C@@H](C)C4)n3)c3cn[nH]c3c2)cc1NS(=O)(=O)c1ccc(F)cc1F,211 to 212
9,Cc1sc2c(c1C)C(c1ccc(Cl)cc1)=N[C@@H](CC(=O)Nc1ccc(N)cc1)c1nnc(C)n1-2,169 to 173
10,CNc1cc(F)ccc1C(=O)OC,39 to 39.5
11,CC(C)N(CCSc1ccc(F)cc1)C(=O)Oc1ccccc1,53 to 58
12,O=C(CCl)NCc1c(O)ccc2c1CCCC2=O,196 to 199
13,COc1ccc2cc(CC[Si](C)(C)C)c(=O)oc2c1,130 to 132
14,O=C(/C=C/c1ccc([N+](=O)[O-])cc1)c1cc2ccccc2oc1=O,272 to 274
15,Cc1cc(COc2ccc(S(=O)(=O)NC[C@@H](C(=O)NO)N3CCN(Cc4ccc(F)cc4)CC3)cc2)c2ccccc2n1,180
16,O=c1cc(N2CCSCC2)oc2c1ccc1ccccc12,171 to 173
17,O=C(O)Cc1ccc(-c2ccccc2F)c(F)c1,126 to 127
18,CCON=C(CC)C1=C(O)CC(c2ccc(Sc3ccc(S(C)(=O)=O)cn3)cc2)CC1=O (stereo not drawn),126 to 128
19,CC(=O)C1=C(O)C(C(=O)C=Cc2ccccc2)C(=O)OC1=O (stereo not drawn),154 to 155
20,Cn1c(=O)c2c(C#N)cccc2n2cnc(-c3noc(C4CC4)n3)c12,115 to 125
21,CCOc1ccc(OCCOCCOC)c2c1C(=O)N(CSc1ccccc1)S2(=O)=O,73 to 75
22,Cc1ccc(N2C=NC(=O)C23CCN(Cc2ccccc2)CC3)cc1,208 to 213
23,CCOC(c1ccc(Cl)c2nc3n(c12)CCCN3c1ccc(Cl)cc1Cl)C1CC1 (stereo not drawn),138 to 140
24,CS(=O)c1n[nH]c2ccccc2c1=O (stereo not drawn),266 to 269
25,Cc1cc(C)c(NC(=O)N=C2CCCN2C)c(C)c1,121 to 123
